The values that follow come from patent EP4303307A1, “METHOD FOR PRODUCING FLAVOURS USING O-METHYLTRANSFERASE FROM PLEUROTUS” (Justus-Liebig-Universität Gießen Rechtsabteilung, priority 2022, dated 2024).

The structures appear in SMILES notation.

Type in all cases: biochemical, P. sapidus
Experiment [1] has as its system O-Methyltransferase. The experiment can be described thus: Enzymatic methylation of further substrates, conversion rates (Table 2). The following applies: 34 °C, 500 µM educt, phosphate buffer pH 7,4 (100 mM), 24 h, without shaking; for Produktkonzentration: concentration of the methylated product. How it is done:
In Tabelle 2 sind die Umsetzungsraten weiterer Ausführungsbeispiele zusammengestellt, wobei die Reaktionsbedingungen für die Umsetzungen in Tabelle 2 beispielhaft wie folgt ausgewählt wurden: Temperatur 34 °C, jeweils 500 µM Edukt- und Produktkonzentration, Phosphatpuffer pH = 7,4 (100 mM), Reaktionsdauer: 24 h, Durchführung jeweils ohne Schütteln). Tabelle 2: Weitere beispielhaft ausgewählte Umsatzraten

Experiment [2] deals with O-Methyltransferase. The experiment can be described thus: Determination of enzyme kinetic parameters (Michaelis-Menten, non-linear regression). An excerpt: Bekanntermaßen werden Biokatalysatoren, bzw. Enzyme wie O-Methyltransferasen, auch durch die Bestimmung ihrer jeweiligen enzymkinetischen Parameter unter definierten Bedingungen charakterisiert. Daher werden anhand eines Beispiels auch die enzymkinetischen Parameter der O-Methyltransferase bestimmt. Die Versuchsergebnisse sind in Tabelle 1 zusammengestellt. Mit dem Substrat, gegenüber dem die beispielhaft untersuchte O-Methyltransferase die höchste Aktivität aufweist, sowie dem Cofaktor werden die enzymkinetischen Parameter (Km, vmax) graphisch nach nichtlinearer Regression (Michaelis-Menten, Softwarepaket OriginPro 2020) ermittelt (vgl. Fig. 8, Fig. 8A, Fig. 8B). Zudem wird beispielhaft die katalytische Konstante (kcat) sowie die katalytische Effizienz (kcat/Km) berechnet. Die resultierenden Werte sind zusammengefasst in Tabelle 1 aufgeführt. Tabelle 1: Enzymkinetische Parameter der aus P. sapidus abgeleiteten O-Methyltransferase unter Verwendung von p-Hydroxybenzaldehyd als Substrat
Fig. 1: Korrelation der Anzahl der Transkriptionskopien und der Peakflächen (normiert auf internen Standard) von p-Anisaldehyd der DK5 und MK57 Kulturen. Fig. 2: SDS-PAGE-Gel der O-Methyltransferase (L: Lysat von E. coli, P: Protein nach Reinigung mittels FPLC) und Western Blot Membran (Anti-His-Tag Antikörper). Fig. 3: Beispielhafte Umsetzung von p-Hydroxybenzaldehyd (500 µM) und SAM (500 µM) mittels O-Methyltransferase (0,16 µM) in Davies Puffer über 2 h (jeweils im Triplikat) zur Ermittlung des pH-Optimums; bei den für die Ordinatenachse gewählten willkürlichen Einheiten handelt es sich um die gerätetypische Quantifizierung der Peakfläche von p-Anisaldehyd im Chromatogramm der jeweiligen Probe aus der betreffenden Reaktionslösung nach Abschluss der Umsetzung. Fig. 4: Beispielhafte Umsetzung von p-Hydroxybenzaldehyd (500 µM) und SAM (500 µM) mittels O-Methyltransferase (0,16 µM) in 0,1 M Phosphatpuffer über 2 h bei 24 °C (jeweils im Triplikat) zur weiteren Ermittlung des pHOptimums. […]

For experiment [3], the system named is O-Methyltransferase. In words: Enzymatic conversion of the thiol substrate, product detected by GC-MS. The following applies: compared with blanks (chemical and chemical-biological). The text has this:
Durch die Umsetzung von 2-Methyl-3-furanthiol als Substrat mit O-Methyltransferase wird beispielhaft das breite, Substanzklassen-übergreifende, Substratspektrum der O-Methyltransferase gezeigt. Neben den unter 6. aufgeführten Substraten werden beispielhaft auch Umsetzungen unter Verwendung von 2-Methyl-3-furanthiol durchgeführt.

For orientation: Km means the substrate concentration at which the rate is half of its maximum.

With `O=c1ccc2cc(O)ccc2o1` [6-Hydroxycoumarin], in the experiment on O-Methyltransferase [1], the Umsetzungsrate worked out at 2% and the Produktkonzentration is given as 11,5 ± 0,3 µM.

`O=Cc1ccc(O)cc1` [p-Hydroxybenzaldehyd]: in the experiment on O-Methyltransferase [2] (calculated, p-Hydroxybenzaldehyd as substrate), the “katalytische Konstante (kcat)” value is on record as 2,5 s^-1. Besides, the “mittlere maximale Geschwindigkeit (vmax)” value with O-Methyltransferase [2] (substrate with SAM (500 µM), enzyme 0,16 µM, 0,1 M phosphate buffer pH 7,4, 34 °C, 20 min) is 43,7 mU mg^-1. Besides, in the experiment with O-Methyltransferase [2] (substrate with SAM (500 µM), enzyme 0,16 µM, 0,1 M phosphate buffer pH 7,4, 34 °C, 20 min, read-out: mittlere Michaelis-Menten-Konstante (Km)), the Michaelis-Menten constant (Km) is 79 µM.

Turning to `Cc1occc1S` [2-Methyl-3-furanthiol], the “Bildung des methylierten Produktes” value in the experiment on O-Methyltransferase [3] is recorded as “gesteigerte Bildung des methylierten Produktes”.

For the compound `COc1cc(C=O)ccc1O` [Vanillin], in the experiment on O-Methyltransferase [1], the Umsetzungsrate amounted to 5% and the Produktkonzentration is listed as 23,8 ± 0,9 µM.
